Read-outs that look alike come from different tables or passages of the source.
Target: T1, human LPA1 (Homo sapiens, UniProt Q92633)
T1 construct: expressed in transfected cells; host or cells: Chinese hamster ovary (CHO) cells
Assay: LPA1 functional antagonist assay (LPA-induced calcium flux in CHO cells overexpressing human LPA1)
Format: cell-based
Conditions: read-out: hLPA1 IC50
Summary of the method: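 CHO cells overexpressing human LPA1, dye-loaded 30 min at 37 °C, then given compound (0.08 nM–5 μM final, 0.5% DMSO) in HBSS/20 mM HEPES/0.1% fatty-acid-free BSA for 20 min at room temperature before 10 nM LPA. IC50 as 50% inhibition of LPA-evoked calcium flux, 4-parameter logistic fit.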

[1] = inhibition of calcium flux induced by 10 nM LPA, CHO cells overexpressing human LPA1

T1 sequence (Q92633 whole entry): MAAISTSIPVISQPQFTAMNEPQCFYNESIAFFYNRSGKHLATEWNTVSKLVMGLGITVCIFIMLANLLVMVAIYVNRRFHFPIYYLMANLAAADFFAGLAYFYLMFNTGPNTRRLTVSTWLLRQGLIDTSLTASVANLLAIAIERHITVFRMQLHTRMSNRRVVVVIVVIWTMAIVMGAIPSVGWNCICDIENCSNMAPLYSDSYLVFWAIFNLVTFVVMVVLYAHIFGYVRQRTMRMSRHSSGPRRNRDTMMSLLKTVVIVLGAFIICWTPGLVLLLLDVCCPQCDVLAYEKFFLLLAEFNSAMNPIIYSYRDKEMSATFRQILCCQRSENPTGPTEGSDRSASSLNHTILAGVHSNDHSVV

Row | SMILES | IC50 [1] [nM] | IC50 [nM]
1 | CCCC(C)(C)c1nc(NCc2c(-c3ccc(O[C@H]4CCC[C@H](C(=O)O)C4)c(C)n3)nnn2C)no1 [Example 197] | 42 | 
2 | Cc1nc(-c2nnn(C)c2C(O)c2cn(Cc3ccccc3)nn2)ccc1O[C@H]1CCC[C@H](C(=O)O)C1 (some centres unmarked) [Example 78, (1 S,3 S)-3-((6-(5-((1-benzyl-1H-1,2,3-triazol-4-yl)(hydroxy)methyl)-1-methyl-1H-1,2,3-triazol-4-yl)-2-methylpyridin-3-yl)oxy)cyclohexane-1-carboxylic acid] | 88 | 
3 | Cc1nc(-c2nnn(C)c2CNc2nc(C3CCCC3)no2)ccc1O[C@H]1CCC[C@H](C(=O)O)C1 [Example 62] | 43 | 
4 | Cc1nc(-c2nnn(C)c2COc2nc(C3CC3)ns2)ccc1O[C@H]1CCC[C@H](C(=O)O)C1 [Example 116, (1S,3S)-3-((6-(5-(((3-cyclopropyl-1,2,4-thiadiazol-5-yl)oxy)methyl)-1-methyl-1H-1,2,3-triazol-4-yl)-2-methylpyridin-3-yl)oxy)cyclohexane-1-carboxylic acid] | 405 | 
5 | Cc1nc(-c2nnn(C)c2CNc2cnn(CC3CCC3)n2)ccc1O[C@H]1CCC[C@H](C(=O)O)C1 [Example 24, (1 S,3 S)-3-((6-(5-(((2-(cyclobutylmethyl)-2H-1,2,3-triazol-4-yl)amino)methyl)-1-methyl-1H-1,2,3-triazol-4-yl)-2-methylpyridin-3-yl)oxy)cyclohexane-1-carboxylic acid] | 33 | 
6 | CCCc1nc(OCc2c(-c3ccc(O[C@H]4CCC[C@H](C(=O)O)C4)c(C)n3)nnn2C)no1 [Example 131] | 19 | 
7 | CCCCn1cnc(NCc2c(-c3ccc(O[C@H]4CCC[C@H](C(=O)O)C4)c(C)n3)nnn2C)n1 [Example 150] | 68.2 | 
8 | CCCCc1nnc(NCc2c(-c3ccc(O[C@H]4CCC[C@H](C(=O)O)C4)c(C)n3)nnn2C)o1 [Example 53] | 297 | 
9 | CCCc1nnn(Cc2c(-c3ccc(O[C@H]4CCC[C@H](C(=O)O)C4)c(C)n3)nnn2C)n1 [Example 113] | 30 | 
10 | Cc1nc(-c2nnn(C)c2CNc2ncc(-c3ccccn3)o2)ccc1O[C@H]1CCC[C@H](C(=O)O)C1 [Example 20] | 99 | 
11 | Cc1nc(-c2nnn(C)c2CNc2nc(C(C)C)ns2)ccc1O[C@H]1CCC[C@H](C(=O)O)C1 [Example 10] | 71 | 
12 | Cc1nc(-c2nnn(C)c2CNc2cc(C3CC3)nn2C)ccc1O[C@H]1CCC[C@H](C(=O)O)C1 [Example 123] | 1290 | 
13 | Cc1nc(-c2nnn(C)c2Cn2nc(C3CCCC3)oc2=N)ccc1O[C@H]1CCC[C@H](C(=O)O)C1 [Example 45] | 228 | 

The next lines start with the values.

Row | IC50 [1] [nM] | IC50 [nM] | SMILES
14 | 11 |  | Cc1nc(-c2nnn(C)c2Cn2nnc(OCc3ccccc3)n2)ccc1O[C@H]1CCC[C@H](C(=O)O)C1 [Example 342, (1S,3S)-3-{[6-(5-{[5-(benzyloxy)-2H-1,2,3,4-tetrazol-2-yl]methyl}-1-methyl-1H-1,2,3-triazol-4-yl)-2-methylpyridin-3-yl]oxy}cyclo-hexane-1-carboxylic acid]
15 | 24 |  | Cc1nc(-c2nnn(C)c2CNc2noc(C3CC34CC4)n2)ccc1O[C@H]1CCC[C@H](C(=O)O)C1 (some centres unmarked) [Example 205]
16 | 414 |  | Cc1nc(-c2nnn(C)c2Cn2nnnc2-c2ccc(F)cc2)ccc1O[C@H]1CCC[C@H](C(=O)O)C1 [Example 323, (1S,3S)-3-((6-(5-((5-(4-fluoro-phenyl)-1H-tetrazol-1-yl)methyl)-1-methyl-1H-1,2,3-triazol-4-yl)-2-methylpyridin-3-yl)oxy)cyclo-hexane-1-carboxylic acid]
17 | 2210 |  | Cc1nc(-c2nnn(C)c2Cn2cc(C3CC3)nn2)ccc1O[C@H]1CCC[C@H](C(=O)O)C1 [Example 267, (1S,3S)-3-((6-(5-((4-cyclopropyl-1H-1,2,3-triazol-1-yl)methyl)-1-methyl-1H-1,2,3-triazol-4-yl)-2-methylpyridin-3-yl)oxy)cyclohexane-1-carboxylic acid]
18 | 192 |  | Cc1nc(-c2nnn(C)c2Cn2nnc(OCC3CC3)n2)ccc1O[C@H]1CCC[C@@H](C(=O)O)C1 [Example 339, (1R,3S)-3-{[6-(5-{[5-(cyclopropyl-methoxy)-2H-1,2,3,4-tetrazol-2-yl]methyl}-1-methyl-1H-1,2,3-triazol-4-yl)-2-methylpyridin-3-yl]oxy}cyclohexane-1-carboxylic acid]
19 |  | 142 | COCCOc1nnn(Cc2c(-c3ccc(O[C@H]4CCC[C@H](C(=O)O)C4)c(C)n3)nnn2C)n1 [Example 407, (1S,3S)-3-{[6-(5-{[5-(2-methoxy-ethoxy)-2H-1,2,3,4-tetrazol-2-yl]methyl}-1-methyl-1H-1,2,3-triazol-4-yl)-2-methylpyridin-3-yl]oxy}cyclohexane-1-carboxylic acid]
20 | 84 |  | CCC(OC)c1nc(NCc2c(-c3ccc(O[C@H]4CCC[C@H](C(=O)O)C4)c(C)n3)nnn2C)no1 (mixture of isomers) [Example 217, (1S,3S)-3-((6-(5-(((5-(1-methoxy-propyl)-1,2,4-oxadiazol-3-yl)amino)methyl)-1-methyl-1H-1,2,3-triazol-4-yl)-2-methylpyridin-3-yl)oxy) cyclo-hexane-1-carboxylic acid]
21 | 236 |  | Cc1nc(-c2nnn(C)c2CNc2noc(CC3CC3)n2)c(F)cc1O[C@H]1CCC[C@H](C(=O)O)C1 [Example 282, (1S,3S)-3-((6-(5-(((5-(cyclopropylmethyl)-1,2,4-oxadiazol-3-yl)amino)methyl)-1-methyl-1H-1,2,3-triazol-4-yl)-5-fluoro-2-methylpyridin-3-yl)oxy)cyclohexane-1-carboxylic acid]
22 | 125 |  | Cn1nnc(-c2ccc(O[C@H]3CCC[C@H](C(=O)O)C3)cn2)c1Cn1nnnc1CC1CC1 [Example 251, (1S,3S)-3-((6-(5-((5-(cyclopropylmethyl)-1H-tetrazol-1-yl)methyl)-1-methyl-1H-1,2,3-triazol-4-yl)pyridin-3-yl)oxy)cyclohexane-1-carboxylic acid]
23 | 67 |  | Cc1nc(-c2nnn(C)c2CNc2noc(CCC(C)C)n2)c(F)cc1O[C@H]1CCC[C@H](C(=O)O)C1 [Example 281, (1S,3S)-3-((5-fluoro-6-(5-(((5-isopentyl-1,2,4-oxadiazol-3-yl)amino)methyl)-1-methyl-1H-1,2,3-triazol-4-yl)-2-methylpyridin-3-yl)oxy)cyclohexane-1-carboxylic acid]
24 |  | 66 | CCc1nc(-c2nnn(C)c2Cn2cc(CC(C)C)nn2)ccc1O[C@H]1CCC[C@H](C(=O)O)C1 [Example 370, (1S,3S)-3-((2-ethyl-6-(5-((4-isobutyl-1H-1,2,3-triazol-1-yl)methyl)-1-methyl-1H-1,2,3-triazol-4-yl)pyridin-3-yl)oxy)cyclohexane-1-carboxylic acid]
25 |  | 1120 | COCCCn1nnc(Cc2c(-c3ccc(O[C@H]4CCC[C@H](C(=O)O)C4)c(C)n3)nnn2C)n1 [Example 401, (1S,3S)-3-{[6-(5-{[2-(3-methoxy-propyl)-2H-1,2,3,4-tetrazol-5-yl]methyl}-1-methyl-1H-1,2,3-triazol-4-yl)-2-methylpyridin-3-yl]oxy}cyclohexane-1-carboxylic acid]
26 | 82 |  | CCCc1noc(Cc2c(-c3ccc(O[C@H]4CCC[C@H](C(=O)O)C4)c(C)n3)nnn2C)n1 [Example 247, (1S,3S)-3-((2-methyl-6-(1-methyl-5-((3-propyl-1,2,4-oxadiazol-5-yl)methyl)-1H-1,2,3-triazol-4-yl)pyridin-3-yl)oxy)cyclohexane-1-carboxylic acid]

Reference: patent US11319315B2, “Cyclohexyl acid triazole azoles as LPA antagonists” (BRISTOL-MYERS SQUIBB COMPANY, priority 2017, dated 2022)
